Assay type in all cases: functional
In assay [1] the test system is Candida albicans. As to the kind of experiment: Antimicrobial activity against Candida albicans DSM 70014 incubated for 48 hrs followed by transfer of colonies to Muller-Hinton agar plate and measured after 18 hrs by two-fold serial broth dilution method. Background: Dilution methods test growth across graded concentrations, often in twofold steps.
Assay [2] concerns Candida albicans. Nature of the assay: Antimicrobial activity against Candida albicans DSM 70014 incubated at 37 degC for 48 hrs by cup diffusion method.
For assay [3], the system named is Bacillus subtilis. As to the kind of experiment: Antimicrobial activity against Bacillus subtilis ATCC 6633 incubated at 37 degC for 24 hrs by cup diffusion method.
Assay [4] deals with Escherichia coli. Nature of the assay: Antimicrobial activity against Escherichia coli ATCC 11775 incubated for 24 hrs by two-fold serial broth dilution method. The following applies: ATCC 11775, 24 h.
For assay [5], the system named is Pseudomonas aeruginosa. Nature of the assay: Antimicrobial activity against Pseudomonas aeruginosa ATCC 10145 incubated for 24 hrs by two-fold serial broth dilution method. The settings on record: ATCC 10145, 24 h.
The test system of assay [6] is Staphylococcus aureus. Nature of the assay: Antimicrobial activity against Staphylococcus aureus DSM 1104 incubated for 24 hrs followed by transfer of colonies to Muller-Hinton agar plate and measured after 18 hrs by two-fold serial broth dilution method.
Assay [7] has as its system Bacillus subtilis. As to the kind of experiment: Antimicrobial activity against Bacillus subtilis ATCC 6633 incubated for 24 hrs followed by transfer of colonies to Muller-Hinton agar plate and measured after 18 hrs by two-fold serial broth dilution method.
The subject of assay [8] is Pseudomonas aeruginosa. As to the kind of experiment: Antimicrobial activity against Pseudomonas aeruginosa ATCC 10145 incubated at 37 degC for 24 hrs by cup diffusion method.
A further assay has as its system NCI-H226. Nature of the assay: Growth inhibition of human NCI-H226 cells at 10 uM incubated for 48 hrs by sulforhodamine B assay. The following applies: NCI-H226, 48 h, read-out: GI. (In general: Sulforhodamine B stains cellular protein and so reports cell mass.)
Assay [9] deals with Escherichia coli. As to the kind of experiment: Antimicrobial activity against Escherichia coli ATCC 11775 incubated for 24 hrs followed by transfer of colonies to Muller-Hinton agar plate and measured after 18 hrs by two-fold serial broth dilution method.
In assay [10] the test system is Candida albicans. As to the kind of experiment: Antimicrobial activity against Candida albicans DSM 70014 incubated for 48 hrs by two-fold serial broth dilution method. The following applies: DSM 70014, 48 h.
For assay [11], the system named is Staphylococcus aureus. As to the kind of experiment: Antimicrobial activity against Staphylococcus aureus DSM 1104 incubated at 37 degC for 24 hrs by cup diffusion method.
The test system of assay [12] is Escherichia coli. As to the kind of experiment: Antimicrobial activity against Escherichia coli ATCC 11775 incubated at 37 degC for 24 hrs by cup diffusion method.
Assay [13] in a line: Growth inhibition of human HOP92 cells at 10 uM incubated for 48 hrs by sulforhodamine B assay. The settings on record: HOP-92, 48 h, read-out: GI.
The test system of assay [14] is Bacillus subtilis. Nature of the assay: Antimicrobial activity against Bacillus subtilis ATCC 6633 incubated for 24 hrs by two-fold serial broth dilution method. The following applies: ATCC 6633, 24 h.
For another assay, the system named is SNB-75. Nature of the assay: Growth inhibition of human SNB75 cells at 10 uM incubated for 48 hrs by sulforhodamine B assay. The settings on record: SNB-75, 48 h, read-out: GI.
Assay [15] relates to Staphylococcus aureus. Nature of the assay: Antimicrobial activity against Staphylococcus aureus DSM 1104 incubated for 24 hrs by two-fold serial broth dilution method. The following applies: DSM 1104, 24 h.
A short description of assay [16]: Growth inhibition of human NCI-ADR-RES cells at 10 uM incubated for 48 hrs by sulforhodamine B assay. The settings on record: read-out: GI.
In assay [17] the test system is Pseudomonas aeruginosa. As to the kind of experiment: Antimicrobial activity against Pseudomonas aeruginosa ATCC 10145 incubated for 24 hrs followed by transfer of colonies to Muller-Hinton agar plate and measured after 18 hrs by two-fold serial broth dilution method.
The subject of a further assay is A498. As to the kind of experiment: Growth inhibition of human A498 cells at 10 uM incubated for 48 hrs by sulforhodamine B assay. The settings on record: A498, 48 h, read-out: GI.
The test system of another assay is UO-31. Nature of the assay: Growth inhibition of human UO31 cells at 10 uM incubated for 48 hrs by sulforhodamine B assay. The following applies: UO-31, 48 h, read-out: GI.
Another assay has as its system PC-3. As to the kind of experiment: Growth inhibition of human PC3 cells at 10 uM incubated for 48 hrs by sulforhodamine B assay. The following applies: PC-3, 48 h, read-out: GI.

We go through 3 compounds from ChEMBL document CHEMBL3621157, “Design, synthesis and biological evaluation of novel 1,2,4-triazolo and 1,2,4-triazino[4,3-a]quinoxalines as potential anticancer and antimicrobial agents” (2015).

≈ marks a conversion by molar mass, not a printed value.

In general, MFC refers to the lowest tested concentration that kills the fungus rather than only halting it. A higher MFC goes with less potent killing. As a reminder, the MIC is the smallest concentration in the dilution series that meets the test's criterion for growth inhibition. The term MBC denotes the smallest concentration meeting the test's criterion for killing.

For `Cc1nnc2c(Cc3ccccc3)nc3ccccc3n12`, the MFC against Candida albicans [1] is 200 µg/mL (≈ 729 µM). For the same compound, the “inhibition zone (IZ)” value came to 14 mm in the assay on Candida albicans [2]; 13 mm in the assay on Bacillus subtilis [3]; 11 mm in the assay with Pseudomonas aeruginosa [8]; 12 mm in the assay with Staphylococcus aureus [11]; 12 mm in the assay on Escherichia coli [12]. Moreover, the MIC with Escherichia coli [4] turned out to be 50 µg/mL (≈ 182 µM); in the assay with Pseudomonas aeruginosa [5], 100 µg/mL (≈ 365 µM); against Candida albicans [10], 100 µg/mL (≈ 365 µM); in the assay on Bacillus subtilis [14], 50 µg/mL (≈ 182 µM); in the assay with Staphylococcus aureus [15], 50 µg/mL (≈ 182 µM). Also, the minimal bactericidal concentration (MBC) was found to be 100 µg/mL (≈ 365 µM) against Staphylococcus aureus [6], 100 µg/mL (≈ 365 µM) against Bacillus subtilis [7], 50 µg/mL (≈ 182 µM) against Escherichia coli [9] and 100 µg/mL (≈ 365 µM) with Pseudomonas aeruginosa [17]. Moreover, the inhibition of growth at 10 µM with NCI-H226 was 15.1%; in assay [13], 17.6%; in the assay on SNB-75, 21.9%; in assay [16] it was 12.6%.

In turn, `O=c1[nH]nc2c(Cc3ccccc3)nc3ccccc3n12` had an MFC against Candida albicans [1] of 100 µg/mL (≈ 362 µM). Besides, the “inhibition zone (IZ)” value in the assay with Candida albicans [2] was 14 mm; in the assay on Bacillus subtilis [3] it was 16 mm; with Pseudomonas aeruginosa [8] it was 12 mm; with Staphylococcus aureus [11], 16 mm; in the assay with Escherichia coli [12] it was 10 mm. The MIC in the assay with Escherichia coli [4] is 100 µg/mL (≈ 362 µM); with Pseudomonas aeruginosa [5], 100 µg/mL (≈ 362 µM); in the assay on Candida albicans [10], 50 µg/mL (≈ 181 µM); against Bacillus subtilis [14], 100 µg/mL (≈ 362 µM); in the assay with Staphylococcus aureus [15], 100 µg/mL (≈ 362 µM). The inhibition of growth at 10 µM with A498 turned out to be 28.6%; with UO-31, 35.5%. Further, the MBC against Staphylococcus aureus [6] is 200 µg/mL (≈ 724 µM); with Bacillus subtilis [7] it was 200 µg/mL (≈ 724 µM); in the assay on Escherichia coli [9], 100 µg/mL (≈ 362 µM); with Pseudomonas aeruginosa [17] it was 100 µg/mL (≈ 362 µM).

In the assay on Candida albicans [1], `c1ccc(Cc2nc3ccccc3n3cnnc23)cc1` showed an MFC of 200 µg/mL (≈ 768 µM). The “inhibition zone (IZ)” value is 17 mm in the assay on Candida albicans [2]; 12 mm with Bacillus subtilis [3]; 14 mm in the assay on Pseudomonas aeruginosa [8]; 17 mm in the assay with Staphylococcus aureus [11]; 12 mm in the assay with Escherichia coli [12]. The MIC against Escherichia coli [4] was determined as 25 µg/mL (≈ 96 µM); against Pseudomonas aeruginosa [5] it was 50 µg/mL (≈ 192 µM); against Candida albicans [10], 100 µg/mL (≈ 384 µM); against Bacillus subtilis [14] it was 50 µg/mL (≈ 192 µM); in the assay with Staphylococcus aureus [15], 50 µg/mL (≈ 192 µM). The inhibition of growth at 10 µM in the assay with A498 was 38.7%; with UO-31, 22.7%; with NCI-H226, 15.5%; with SNB-75, 23.5%; in the assay with PC-3 it was 14.2%. The MBC in the assay with Staphylococcus aureus [6] was 100 µg/mL (≈ 384 µM); in the assay on Bacillus subtilis [7], 50 µg/mL (≈ 192 µM); in the assay with Escherichia coli [9] it was 25 µg/mL (≈ 96 µM); with Pseudomonas aeruginosa [17], 100 µg/mL (≈ 384 µM).
